{
  "source": "patent EP2767286B1",
  "about": "“ORAL PHARMACEUTICAL COMPOSITION FOR THE TREATMENT OF INFLAMMATORY GASTROINTESTINAL DISEASES” (Obshestvo S Ogranichennoj Otvetstvennostju \"CytoNIR\", priority 2011, dated 2018)",
  "key": {"[1]": {"tested_on": "Versuchsmodell der toxischen Hepatitis", "assay": "Hepatoprotective activity in the experimental model of toxic hepatitis (TCM)", "format": "in vivo, Ratten der Linie Sprague-Dawley", "details": "100 mg/kg, blood; for APh: alkalische Phosphatase", "from_the_text": "Beispiel 2 Bewertung der hepatoprotektiven Aktivität der erfindungsgemäßen pharmazeutischen Zubereitung bei Verabreichung am Versuchsmodell der toxischen Hepatitis.\nJede Versuchsgruppe zählte 10 Tiere. Die zu untersuchenden Präparate wurden den Ratten in Form von Wasserlösung intragastrisch mit einer atraumatischen Metallsonde eingeführt. Die Referenztiere bekamen Reinwasser verabreicht.\nAls Vergleichspräparat wurde bei der Untersuchung der hepatoprotektiven Aktivität das Präparat Silibinin in Kapseln, Fabrikat Rosa-Phytopharm (Bulgarien) verwendet. in der gleichen Menge wie das Volumen der hepatoprotektiven Mittel behandelt. Die hepatoprotektive Aktivität wurde 7 und 14 Tage ab Anfang der Behandlung bewertet. Im Blutserum wurden die Aktivität von Aspartat-Amino-transferase (ASAT), Alanin-Aminotransferase (ALT), alkalische Phosphatase sowie der Cholesterinspiegel, Triglyzeridespiegel ermittelt. […]\nDie statistische Datenverarbeitung wurde anhand der handelsüblichen Software Microsoft Excel durchgeführt. Die Unterschiede zwischen den Stichproben wurden anhand des Student t-Tests bewertet. […] Die Angaben sind in der Tabelle 3 aufgeführt. Tabelle 3. […] Tag […]"}, "[2]": {"tested_on": "chronischen Duodenalulkus durch Heliobacter pylori", "details": "peroral, in complex therapy; cited from earlier work"}, "[3]": {"tested_on": "Modell des Indometacin-Magengeschwürs", "assay": "Gastroprotective activity in the indometacin gastric ulcer model", "format": "in vivo, Ratten der Linie Sprague-Dawley", "from_the_text": "Beispiel 1 Gastroprotektive Aktivität der erfindungsgemäßen pharmazeutischen Zubereitung bei Verabreichung am Modell einer Geschwürbildung.\nDie experimentelle Forschung wurde an 50 männlichen Auszucht-Ratten der Linie Sprague-Dawley mit einem Körpergewicht von 180 - 200 g durchgeführt. Vor den Versuchen wurden die Tiere einer 14 Tage langen Quarantäne und Randomisierung unterzogen. Die Tiere wurden unter Vivarium-Bedingungen mit genormter Nahrungsration unterhalten.\nDie Tiere wurden in folgende Gruppen aufgeteilt: • Ratten, die mit einem ulzerogenen Präparat (Indometacin) und Kochsalzlösung (2 ml/kg) behandelt wurden; diese Tiere bilden die Vergleichsgruppe (Referenzgruppe); • Ratten, die mit einem ulzerogenen Präparat intragastrisch und einem Vergleichspräparat (Sucralfate in der Dosis von 200,0 mg/kg) behandelt wurden; • Ratten, die mit einem ulzerogenen Präparat intragastrisch und mit der pharmazeutischen Zubereitung (10,0 µg/kg) behandelt wurden; • Ratten, die mit einem ulzerogenen Präparat intragastrisch und mit der pharmazeutischen Zubereitung (0,1 µg/kg) behandelt wurden. physiologischen Lösung verabreicht. Die pharmazeutische Zubereitung und das Vergleichspräparat in den oben genannten Mengen wurden im Laufe von 7 Tagen ab dem Zeitpunkt der Simulation des Indometacin-Magengeschwürs (Heilschema) intragastrisch verabreicht. Die Tiere der Referenzgruppe wurden mit Äquivolumen-Mengen des Lösemittels unter entsprechenden Regimes behandelt.\nDas Körpergewicht der Tiere wurde im Zeitablauf ermittelt. 24 Stunden nach Abschluss dieser Behandlung wurden die Tiere der Euthanasie mittels prompter Dekapitation unter Blutabnahme unterzogen. Die Mägen wurden entnommen, an der Minorseite aufgeschnitten und mit kalter Kochsalzlösung gewaschen. Die Destruktionszahl wurde makroskopisch mit Hilfe von einem Binokular unter heller Vertikalbeleuchtung ermittelt. Die Destruktionen wurden je nach ihrem Flächeninhalt wie folgt differenziert: Fein (punktförmig, Größe von unter 1 mm), mittelmäßig (rund und streifenförmig, ab 1 mm) und groß (über 1- 2 mm). Das Vorhandensein von Blut an der Destruktionsunterkante wurde anhand der Peroxydase-Reaktion mit Orthodianisidin-Substrat unter Kennfärben der Schleimhaut mit Methylenblau erkannt. Dabei wurde die hämhaltige Oberfläche braun-schwarz im bläulichen Hintergrund der intakten Schleimhaut gefärbt.\nDie Verteilung der Tiere in der Gruppe mit Schleimhautfehlern wurde je nach Grad der Ausprägung der makroskopischen Änderungen erfasst. Der Paul's Index (PI) wurde wie folgt berechnet: durchschnittliche Geschwürmenge x % der Tiere mit Geschwüren / 100 %. Die gastroprotektive Aktivität (GA) wurde als PI / PI Verhältnis zwischen der Referenzgruppe und einer Versuchsgruppe berechnet. Das zu untersuchende Präparat wurde als aktiv beurteilt, wenn GA 2 und mehr betrug.\nDie statistische Datenverarbeitung wurde anhand der handelsüblichen Software Microsoft Excel durchgeführt. Die Relevanz der Änderungen wurde unter Anwendung des Student t-Tests berechnet."}, "[4]": {"tested_on": "nicht durch Heliobacter pylori assoziierte Magengeschwüren", "details": "peroral, in complex therapy; cited from earlier work"}},
  "note": "Marks after values point to notes of the source that are not given here. Ends that are not written are not given here.",
  "data": [
    {"compound": "COc1cc(C2Oc3cc([C@H]4Oc5cc(O)cc(O)c5C(=O)[C@@H]4O)ccc3OC2CO)ccc1O", "note": "(some centres unmarked) [Silibinin]", "values": [
      {"measurement": "APh", "setting": "[1]; 7. Behandlungstag", "value": "469±30", "unit": "nMol/s x L"},
      {"measurement": "ALAT", "setting": "[1]; 7. Behandlungstag", "value": "1,56±0,12 mMol/Einheiten x L"},
      {"measurement": "ASAT", "setting": "[1]; 7. Behandlungstag", "value": "1,28±0,15 mMol/Einheiten x L"},
      {"measurement": "Cholesterin", "setting": "[1]; 7. Behandlungstag", "value": "3,60±0,18 mMol/ L"},
      {"measurement": "Triglyzeride", "setting": "[1]; 7. Behandlungstag", "value": "2,44±0,12 mMol/ L"},
      {"measurement": "APh", "setting": "[1]; 14. Behandlungstag", "value": "288±17", "unit": "nMol/s x L"},
      {"measurement": "ALAT", "setting": "[1]; 14. Behandlungstag", "value": "0,99±0,16 mMol/Einheiten x L"},
      {"measurement": "ASAT", "setting": "[1]; 14. Behandlungstag", "value": "0,75±0,11 mMol/Einheiten x L"},
      {"measurement": "Cholesterin", "setting": "[1]; 14. Behandlungstag", "value": "1,99±0,12 mMol/ L"},
      {"measurement": "Triglyzeride", "setting": "[1]; 14. Behandlungstag", "value": "1,48±0,14 mMol/ L"}
    ]},
    {"compound": "N-Acetyl- Glukosaminyl- 1 -4-N-Acetylmuramid- L-Alanyl- D-Isoglutamin [Licopid]", "values": [
      {"measurement": "Eradikation von Heliobacter pylori und Wiederherstellung der Magenschleimhaut", "setting": "[2]", "value": "hohe Effizienz hinsichtlich der Eradikation von Heliobacter pylori"}
    ]},
    {"compound": "Sucralfate", "values": [
      {"measurement": "Anzahl der Geschwüre (X ± m) Fein", "setting": "[3]; 200 mg/kg intragastric, 7 days", "value": "8±2"},
      {"measurement": "Anzahl der Geschwüre (X ± m) Groß", "setting": "[3]; 200 mg/kg intragastric, 7 days", "value": "5±2"},
      {"measurement": "Anzahl der Geschwüre (X ± m) Mittelmäßig", "setting": "[3]; 200 mg/kg intragastric, 7 days", "value": "4±1"},
      {"measurement": "Tiere mit Geschwüren", "setting": "[3]; 200 mg/kg intragastric, 7 days", "value": 100, "unit": "%"},
      {"measurement": "PI", "setting": "[3]; 200 mg/kg intragastric, 7 days, Paul's Index", "value": "16,9*"},
      {"measurement": "GA", "setting": "[3]; 200 mg/kg intragastric, 7 days, gastroprotektive Aktivität, PI reference / PI test group, active if 2 or more", "value": "2,05"},
      {"measurement": "Durchschnitt (X±m)", "setting": "[3]; 200 mg/kg intragastric, 7 days, mean number of ulcers", "value": "17±4"},
      {"measurement": "Körpergewichtsverlauf (M±m)", "setting": "[3]; 200 mg/kg intragastric, 3 Tage", "value": "186 ± 4", "unit": "g"},
      {"measurement": "Körpergewichtsverlauf (M±m)", "setting": "[3]; 200 mg/kg intragastric, 7 Tage", "value": "169 ± 3", "unit": "g"},
      {"measurement": "Körpergewichtsverlauf (M±m)", "setting": "[3]; 200 mg/kg intragastric, Hintergrund (baseline)", "value": "198 ± 3", "unit": "g"},
      {"measurement": "Hyperämie der Schleimhaut, Anteil der Tiere", "setting": "[3]; Sucralfate 200 mg/kg", "value": 40, "unit": "%"}
    ]},
    {"compound": "TEKRRETVEREKE [Gepon, synthetischer Peptid-Immunmodulator]", "values": [
      {"measurement": "Regeneration, Vernarbungszeit, zellgebundene Immunität", "setting": "[4]", "value": "Beschleunigung der Regenerationsvorgänge, zur Abkürzung der Vernarbungszeit des ulzerösen Defekts und zur Verbesserung der Kenndaten der zellgebundenen Immunität"}
    ]}
  ]
}
